According to US20120207763A1, “PYRROLOPYRIMIDINE COMPOUNDS AND THEIR USES” (ASTEX THERAPEUTICS LIMITED, priority 2006, published 2012):
Like-named read-outs stand apart in the source and are kept apart here.

Columns and labels:
[1] = molecular target: CDK2/Cyclin-A kinase complex (Homo sapiens, UniProt P24941); assay: CDK2 IMAP fluorescence polarization assay; assay type: biochemical
Description: In order to test the CDK2 activity of the compounds of the invention, the CDK2 assay is a flourescence polarization assay, where the enzyme is a purified active CDK2/Cyclin-A kinase complex and the substrate is a synthesized peptide derived from Histone H1. This assay utilizes the IMAP technology from Molecular Devices. The active CDK2/Cyclin-A complex phosphorylates the peptide substrate, which is conjugated with the TAMRA tag. The phosphorylated site is then recognized by a metal containing molecule that interacts with the TAMRA tag to induce a high flourescence polarization. The compounds that inhibit the CDK2 kinase activity would inhibit the flourescence output of the assay.

CDK4 = CDK4 (Homo sapiens, UniProt P11802); assay: CDK4 HTRF assay; assay type: biochemical; conditions: Table E; read-out: CDK4 HTRF/IC50 [umol l − 1]
[2] = Table E, read-out: CDK2cyA IMAP/IC50 [umol l − 1]

CDK4, sequence (P11802 whole entry): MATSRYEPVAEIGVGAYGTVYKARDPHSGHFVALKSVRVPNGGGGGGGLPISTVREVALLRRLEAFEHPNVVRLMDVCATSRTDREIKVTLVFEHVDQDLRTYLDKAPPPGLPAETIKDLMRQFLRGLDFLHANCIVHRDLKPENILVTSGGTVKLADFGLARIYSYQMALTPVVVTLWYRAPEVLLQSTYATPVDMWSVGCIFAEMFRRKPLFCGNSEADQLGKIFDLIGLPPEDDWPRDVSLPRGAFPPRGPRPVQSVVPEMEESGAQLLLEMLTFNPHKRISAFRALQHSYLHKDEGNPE
CDK4, sequence (P24385 whole entry partner): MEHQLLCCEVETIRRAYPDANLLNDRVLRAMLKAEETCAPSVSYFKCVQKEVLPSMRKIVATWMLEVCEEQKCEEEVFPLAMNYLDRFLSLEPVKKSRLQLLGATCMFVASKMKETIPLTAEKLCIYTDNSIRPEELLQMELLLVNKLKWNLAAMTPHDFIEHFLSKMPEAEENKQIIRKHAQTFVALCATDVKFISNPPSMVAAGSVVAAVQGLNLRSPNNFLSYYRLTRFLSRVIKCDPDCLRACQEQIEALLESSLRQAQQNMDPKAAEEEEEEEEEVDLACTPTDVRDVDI

SMILES | IC50 [1, 2] [µM] | IC50 (CDK4) [µM] | IC50 ([1]; Table C, read-out: CDK2 IC50) [µM]
CCC(CC)n1c(C(C)=O)cc2cnc(Nc3ccc(N4CCN(C(C)=O)CC4)cc3)nc21 [Example 377, 1-[2-[4-(4-Acetyl-piperazin-1-yl)-phenylamino]-7-(1-ethyl-propyl)-7H-pyrrolo[2,3-d]pyrimidin-6-yl]-ethanone] | < 1 | < 1 | 
Cc1cc(-c2c(C)c3cnc(Nc4ccc(N5CCNCC5)cn4)nc3n2C2CCCC2)[nH]n1 [Example 404] | > 10 | < 1 | 
Cc1cn(-c2cccnc2)c2nc(Nc3ccc(N4CCNCC4)cn3)ncc12 [Example 447] | > 10 | 10 | 
OC1CCCC(n2ccc3cnc(Nc4ccc(N5CCNCC5)cc4)nc32)C1 (stereo not shown) [Example 244] | < 1 | < 1 | 
CCC(CC)n1c(C(=O)N(C)C)cc2cnc(Nc3ccc(N4CCNCC4)cc3)nc21 [Example 335, 7-(1-ethyl-propyl)-2-(4-piperazin-1-yl-phenylamino)-7H-pyrrolo[2,3-d]pyrimidine-6-carboxylic acid dimethyl amide] | < 10 | < 1 | 
CC(=O)N1CCN(c2ccc(Nc3ncc4ccn(C5CCOCC5)c4n3)cc2)CC1 [Example 228] | < 10 |  | 
Cc1c(-c2cnco2)n(C2CCCC2)c2nc(Nc3ccc(N4CCNCC4)cn3)ncc12 [Example 399] | < 10 | < 1 | 
COc1ccccc1Nc1ncc2c(C)cn(C3CCCC3)c2n1 [Example 293] | > 10 | 10 | 
Cc1cccnc1Nc1ncc2c(C)cn(C3CCCC3)c2n1 [Example 297] | > 10 | 10 | 
COC(=O)c1c(C)n(C2CCCC2)c2nc(Nc3ccc(N4CCNCC4)cn3)ncc12 [Example 385, 7-Cyclopentyl-6-methyl-2-(5-piperazin-1-yl-pyridin-2-ylamino)-7H-pyrrolo[2,3-d]pyrimidine-5-carboxylic acid methyl ester] | > 10 | > 10 | 
CCCCNC(=O)c1cc2cnc(Nc3ccc(N4CCNCC4)cc3)nc2n1C(CC)CC [Example 336] | > 10 |  | 
Brc1cn(C2CCCC2)c2nc(Nc3ccc(N4CCNCC4)cn3)ncc12 [Example 432] | > 10 | > 10 | 
CC1CN(C2CCCC2)c2nc(Nc3ccc(N4CCN(C)CC4)cc3)ncc21 (stereo not shown) |  |  | > 10
c1ncc(-c2ccc(Nc3ncc4ccn(C5CCCC5)c4n3)cc2)o1 [Example 258] | < 10 | > 10 | 
CCC(CC)n1c(C(=O)N2CCCC2)cc2cnc(Nc3ccc(N4CCNCC4)cc3)nc21 [Example 337] | > 10 |  | 
CCC(CC)n1c(CNC(C)C)cc2cnc(Nc3ccc(N4CCN(C(C)=O)CC4)cc3)nc21 [Example 366] | < 10 |  | 
Cc1cn(-c2nccs2)c2nc(Nc3ccc(N4CCNCC4)cn3)ncc12 [Example 321] | > 10 |  | 
CCc1cn(C2CCCC2)c2nc(Nc3ccc(N4CCNCC4)cc3)ncc12 [Example 438] | < 10 |  | 
Cc1cn(-c2cccnc2)c2nc(Nc3ccc(N4CCNCC4)cc3)ncc12 [Example 322] | > 10 |  | 
CC(=O)N1CCN(c2ccc(Nc3ncc4ccn(C5CCCC5)c4n3)cc2)CC1 [Example 254] | < 1 |  | 
Cc1cn(C2CCCC2)c2nc(Nc3ccc(N4CCNCC4)c(F)c3)ncc12 [Example 285] | < 10 |  | 
CC(=O)N1CCN(c2ccc(Nc3ncc4ccn(C5CCCC(C)C5)c4n3)cc2)CC1 (stereo not shown) [Example 241] | < 10 |  | 
CCC(C(=O)OC)n1ccc2cnc(Nc3ccc(N4CCN(C(C)=O)CC4)cc3)nc21 (stereo not shown) [Example 219] | < 10 |  | 
CCC(CC)n1c(CNC(C)C)cc2cnc(Nc3ccc(N4CCNCC4)cc3)nc21 [Example 367] | < 10 |  | 
CCC(C(N)=O)n1ccc2cnc(Nc3ccc(N4CCNCC4)cc3)nc21 (stereo not shown) [Example 234] | > 10 |  | 
Cc1cc(-c2c(C)c3cnc(Nc4ccc(N5CCNCC5)cn4)nc3n2C2CCCC2)on1 [Example 405] | > 10 |  | 
CCOC(=O)C(C(C)C)n1ccc2cnc(Nc3ccc(N4CCN(C(C)=O)CC4)cc3)nc21 (stereo not shown) [Example 223] | > 10 |  | 

SMILES | IC50 [1, 2] [µM] | IC50 (CDK4) [µM] | IC50 ([1]; Table C, read-out: CDK2 IC50) [µM]
CN(C)CC1CCC(n2ccc3cnc(Nc4ccc(N5CCNCC5)cc4)nc32)C1 (stereo not shown) [Example 249] | < 10 |  | 
CC(=O)N1CCN(c2ccc(Nc3ncc4c(C)cn(C5CCCCC5)c4n3)cc2)CC1 [Example 274] | > 10 |  | 
CC(=O)N1CCN(c2ccc(Nc3ncc4ccn(C5CCC(C)CC5)c4n3)cc2)CC1 (stereo not shown) [Example 236] | < 1 |  | 
Cc1cn(-c2ccccn2)c2nc(Nc3ccc(N4CCNCC4)cn3)ncc12 [Example 320, (5-Methyl-7-pyridin-2-yl-7H-pyrrolo[2,3-d]pyrimidin-2-yl)-(5-piperazin-1-yl-pyridin-2-yl)-amine] | > 10 |  | 
CC(=O)c1c(C)c2cnc(Nc3ccc(N4CCNCC4)cn3)nc2n1C1CCOCC1 [Example 388] | > 10 |  | 
Cc1cn(-c2ccccc2)c2nc(Nc3ccc(N4CCNCC4)cc3)ncc12 [Example 437] | > 10 |  | 
Cc1cn(C2CCCC2)c2nc(Nc3ccncc3)ncc12 [Example 298] | < 1 |  | 
c1cc(N2CCNCC2)ccc1Nc1ncc2ccn(C3CCOCC3)c2n1 [Example 235] | > 10 |  | 
Cc1cn(C2CCCC2)c2nc(Nc3ccc(N4CCNCC4)nc3)ncc12 [Example 283] | > 10 |  | 
CCC(=O)N1CCN(c2ccc(Nc3ncc4ccn(C(CC)CC)c4n3)cc2)CC1 [Example 237] | < 10 |  | 
CCC(CC)n1ccc2cnc(Nc3ccc(N4CCN(C(C)=O)CC4)cc3)nc21 [Example 201] | < 10 |  | 
CCC(C(N)=O)n1ccc2cnc(Nc3ccc(N4CCN(C(C)=O)CC4)cc3)nc21 (stereo not shown) [Example 227] | < 10 |  | 
Cc1cn(C2CC2)c2nc(Nc3ccc(N4CCNCC4)cn3)ncc12 [Example 271] | > 10 |  | 
Cc1cn(C2CCCC2)c2nc(Nc3ccc(S(N)(=O)=O)cc3)ncc12 [Example 288] | < 1 |  | 
CC(=O)N1CCN(c2ccc(Nc3ncc4ccn(C5CCCCC5=O)c4n3)cc2)CC1 (stereo not shown) [Example 226] | > 10 |  | 
Cc1cn(C2CC2)c2nc(Nc3ccc(N4CCN(C)CC4)cc3)ncc12 [Example 270] | > 10 |  | 
CN1CCN(c2ccc(Nc3ncc4ccn(C5CCCC5)c4n3)cc2)CC1 [Example 253] | < 10 |  | 
CC(=O)N1CCN(c2ccc(Nc3ncc4ccn(C5CCCC5)c4n3)nc2)CC1 [Example 252] | > 10 |  | 
CCC(CC)n1c(C(=O)NC2CCCC2)cc2cnc(Nc3ccc(N4CCNCC4)cc3)nc21 [Example 344] | > 10 |  | 
CCC(C)n1ccc2cnc(Nc3ccc(N4CCN(C(C)=O)CC4)cc3)nc21 (stereo not shown) [Example 222] | < 10 |  | 
CCC(CC)n1c(C(=O)N2CCOCC2)cc2cnc(Nc3ccc(N4CCNCC4)cc3)nc21 [Example 343] | > 10 |  | 
CCC(CC)n1c(C(=O)OC)cc2cnc(Nc3ccc(N4CCN(C(C)=O)CC4)cc3)nc21 [Example 373, 2-[4-(4-Acetyl-piperazin-1-yl)-phenylamino]-7-(1-ethyl-propyl)-7H-pyrrolo[2,3-d]pyrimidine-6-carboxylic acid methyl ester] | < 10 |  | 
Cc1cn(C2CCCC2)c2nc(Nc3ccc(N4CCN(S(C)(=O)=O)CC4)cc3)ncc12 [Example 286] | < 10 |  | 
CCC(C(=O)OC)n1ccc2cnc(Nc3ccc(N4CCNCC4)cc3)nc21 (stereo not shown) [Example 221] | < 10 |  | 
Cc1cn(C2CCCC2)c2nc(Nc3cccnc3)ncc12 [Example 300] | < 1 |  | 
CC(C)c1cn(C2CCCC2)c2nc(Nc3ccc(N4CCNCC4)cn3)ncc12 [Example 440] | > 10 |  | 
